Measured values: publication PMC6116245 (Viruses, 2018)
≈ marks a conversion by molar mass, not a printed value. Where “and” joins values, the source holds several entries; their conditions need not be identical. Equal values may be shown once. Entries after “also recorded” stand apart in the source; their conditions may differ. Read-outs that look alike come from different tables or passages of the source.

Key:
human norovirus = tested on: human norovirus; design: method as in ref 60 = [60]; details: B-cell culture system; cited from earlier work
[1] = tested on: human GI.1 norovirus replicon; design: method as in ref 59 = [59]; details: cell culture; cited from earlier work
human norovirus replicon = tested on: human norovirus replicon; design: method as in ref 47, 57 = [47]; details: cell culture-based assays; cited from earlier work
[2] = tested on: FCV RNA in infected CRFK cells; assay: FCV genome reduction assay by RT-qPCR; assay type: cell-based, Feline calicivirus; details: 24 h, MOI 0.0005
murine norovirus [3] = tested on: murine norovirus; design: method as in ref 47, 57 = [47]; details: cell culture-based assays; cited from earlier work
[4] = Cytotoxicity study, CellTitre-Blue viability assay; details: cat
FCV strain F-9 = assay: FCV plaque reduction assay in CRFK cells; details: for Therapeutic index (TI = CC50/EC50): CRFK CC50 / FCV plaque reduction EC50; for Antiviral effect against FCV in cell culture (in words): plaque reduction assay
[5] = molecular target: FCV RdRp (recombinant FCV Pro-Pol) (Feline calicivirus, UniProt Q66914); assay: Fluorescent RdRp assay (PicoGreen, poly(C) template); details: for RdRp Activity [% of Mock at 10 µM]: 10 µM compound, remaining activity relative to mock; for Reduction of RdRp activity compared to mock controls: fixed concentration of 10 µM
Sequence of FCV RdRp (recombinant FCV Pro-Pol) (Q66914 1072-1763): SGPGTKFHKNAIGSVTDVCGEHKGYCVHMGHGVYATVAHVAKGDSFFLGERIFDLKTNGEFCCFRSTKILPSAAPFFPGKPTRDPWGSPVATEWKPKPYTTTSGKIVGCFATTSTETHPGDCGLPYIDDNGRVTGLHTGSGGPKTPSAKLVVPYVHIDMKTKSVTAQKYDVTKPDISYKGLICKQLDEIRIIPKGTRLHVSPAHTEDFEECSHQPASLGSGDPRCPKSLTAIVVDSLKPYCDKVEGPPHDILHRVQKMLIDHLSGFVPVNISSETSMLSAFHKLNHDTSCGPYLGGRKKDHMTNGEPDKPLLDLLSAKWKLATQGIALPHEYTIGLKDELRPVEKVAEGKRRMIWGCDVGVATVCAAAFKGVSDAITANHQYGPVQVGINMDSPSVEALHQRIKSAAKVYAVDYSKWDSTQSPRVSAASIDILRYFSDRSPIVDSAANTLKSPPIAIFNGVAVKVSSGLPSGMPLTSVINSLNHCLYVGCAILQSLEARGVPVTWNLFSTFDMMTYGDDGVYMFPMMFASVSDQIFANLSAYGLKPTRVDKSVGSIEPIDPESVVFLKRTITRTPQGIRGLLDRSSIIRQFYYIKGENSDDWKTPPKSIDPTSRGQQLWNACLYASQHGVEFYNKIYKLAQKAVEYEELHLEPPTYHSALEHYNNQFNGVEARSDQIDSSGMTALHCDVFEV

[6] = tested on: Crandell Rees Feline Kidney (CRFK) cells; assay: Cytotoxicity study, CellTitre-Blue viability assay; details: read-out: Cell Viability CC50; CRFK cells, 48 h, CellTitre-Blue
[7] = molecular target: FCV protease (recombinant FCV Pro-Pol) (Feline calicivirus, UniProt Q66914); assay: Protease FRET activity assay; assay type: biochemical, Feline calicivirus (FCV Urbana); details: for Inhibitory effect against FCV protease (in words): FRET assay, up to 50 µM
Sequence of FCV protease (recombinant FCV Pro-Pol) (Q66914 1072-1763): as above

in vitro = details: cat, Cell Viability CC50
FCV [8] = tested on: FCV; design: method as in ref 29, 30 = [29]; details: cell-based assays; read-out: EC50 against FCV; cited from earlier work
[9] = tested on: Crandell Rees Feline Kidney (CRFK) cells
FCV [10] = tested on: FCV; design: method as in ref 26 = [26]; details: read-out: EC50 against FCV in vitro; cited from earlier work
canine coronavirus = tested on: canine coronavirus; design: method as in ref 54, 63 = [54]; details: cell culture; cited from earlier work
rotavirus = tested on: rotavirus; design: method as in ref 54, 63 = [54]; details: cell culture; cited from earlier work
murine norovirus [11] = tested on: murine norovirus; design: method as in ref 64 = [64]; details: cited from earlier work
adenovirus = tested on: adenovirus; design: method as in ref 54, 63 = [54]; details: cell culture; cited from earlier work
[12] = in vivo; cited from earlier work
GI norovirus replicon = tested on: GI norovirus replicon; design: method as in ref 64 = [64]; details: cleared the replicon from the host cells; cited from earlier work
HCV infectious virus = details: read-out: EC50 infectious HCV in cell cultures; cited from earlier work
chikungunya replicon = tested on: chikungunya replicon; design: method as in ref 75 = [75]; details: cited from earlier work
[13] = tested on: human norovirus protease (genogroup I and II); design: method as in ref 29, 52 = [29]; details: FRET-based assays; cited from earlier work
[14] = in vivo; cited from earlier work; remark: listed apart in the source
FCV [15] = tested on: FCV; design: method as in ref 25 = [25]; details: in vitro assays; cited from earlier work
human norovirus RdRp = tested on: human norovirus RdRp; design: method as in ref 59 = [59]; details: cited from earlier work
murine norovirus RdRp = tested on: murine norovirus RdRp; design: method as in ref 59 = [59]; details: cited from earlier work
[16] = Crandell Rees Feline Kidney (CRFK) cells, Cell Viability CC50, CRFK cells, 48 h, CellTitre-Blue
[17] = Feline calicivirus, CRFK, 24 h, read-out: Plaque Reduction Assay EC50, FCV in CRFK cells, 24 h
[18] = read-out: Plaque Reduction Assay EC50, FCV in CRFK cells, 24 h
[19] = FRET, 50 µM substrate, read-out: In vitro Protease IC50
[20] = Feline calicivirus, CRFK, 24 h, read-out: Inhibition of plaque formation
[21] = Feline calicivirus, CRFK, 24 h, read-out: Plaque Reduction Assay EC50

## C[C@@]1(O)[C@H](O)[C@@H](CO)O[C@H]1n1ccc(N)nc1=O [2CMC, 2′-C-methylcytidine]
Human norovirus
  EC50: 0.3 µM
[1]
  EC50: 8.2 µM
Human norovirus replicon
  EC50: ~18 µM
[2]; 10 µM
  Reduction of FCV RNA levels compared to mock-treated cells: 95%
Murine norovirus [3]
  EC50: ~2 µM
[4]; [16]
  CC50 at 48 h: > 100 µM
FCV strain F-9
  Therapeutic index (TI = CC50/EC50): > 40
FCV strain F-9; [17]
  EC50: 2.5 µM
FCV strain F-9; [18]
  EC50: 2.6 µM

## COc1ccc2c(c1)[C@@H]1C[C@]1(C(=O)N1[C@@H]3CC[C@H]1CN(C)C3)Cn1c-2c(C2CCCCC2)c2ccc(C(=O)NS(=O)(=O)N(C)C)cc21 [Beclabuvir]
[5]
  RdRp Activity [% of Mock at 10 µM]: 92.2%
  Reduction of RdRp activity compared to mock controls: ≤ 10%
[4]; [16]
  CC50 at 48 h: < 30 µM
[6]
  CC50: 27.5 µM

## CC(C)C[C@H](NC(=O)[C@@H](NC(=O)N[C@@H](Cc1ccccc1)C(=O)O)[C@@H]1CCN=C(N)N1)C(=O)N[C@H](C=O)Cc1ccccc1 [Chymostatin, chymostatin]
[7]
  Inhibitory effect against FCV protease (in words): no inhibitory effect
[7]; [19]
  IC50: > 50 µM

## CC(=O)OCC(CCn1cnc2cnc(N)nc21)COC(C)=O [Famciclovir]
In vitro
  CC50 at 48 h: > 100 µM
FCV strain F-9; [17]
  EC50: > 50 µM
FCV strain F-9; Feline calicivirus, CRFK, read-out: Inhibition of plaque formation
  inhibition at 50 µM: 10%
FCV strain F-9
  Antiviral effect against FCV in cell culture (in words): no antiviral effect observed

## CC(C)C[C@H](NC(=O)OCc1ccccc1)C(=O)N[C@@H](CC1CCNC1=O)C(O)S(=O)(=O)O (some centres unmarked) [GC376]
[7]; [19]
  IC50: 18 µM and 18.7 µM
FCV [8]
  EC50: 35 µM and 35.2 µM
FCV strain F-9; [18]
  EC50: > 10 µM
[9]
  CC50: > 100 µM

## CC(C)C[C@H](NC(=O)OCc1ccccc1)C(=O)N[C@@H](C[C@@H]1CCNC1=O)C(O)S(=O)(=O)[O-].[Na+] (some centres unmarked) [GC376]
[7]; 50 µM
  Inhibition of FCV protease: 75%
FCV strain F-9
  Antiviral effect against FCV in cell culture (in words): did not display antivirals effects

## O=C(O)c1ccc2c(c1)nc(-c1ccc(OCc3cc(N4CCCC4=O)ccc3-c3ccc(Cl)cc3)cc1F)n2C1CCCCC1 [JTK-109]
[5]
  RdRp Activity [% of Mock at 10 µM]: 89.8%
  Reduction of RdRp activity compared to mock controls: ≤ 10%

## OC(c1cc(C(F)(F)F)nc2c(C(F)(F)F)cccc12)C1CCCCN1 (centres unmarked) [Mefloquine]
FCV [10]
  EC50: 6.03 µM

## CC(C)C[C@H](NC(=O)[C@H](Cc1cccc2ccccc12)NC(=O)OCc1ccccc1)C(=O)N[C@H](C=O)C[C@@H]1CCNC1=O [NPI52]
FCV [8]
  EC50: 0.02 µM

## CC(=O)Oc1ccccc1C(=O)Nc1ncc([N+](=O)[O-])s1 [Nitazoxanide, nitazoxanide]
[5]
  IC50: > 10 µM
[7]
  IC50: > 10 µM
Canine coronavirus
  EC50 canine coronavirus replication: 1 µg/mL (≈ 3.25 µM)
rotavirus
  EC50 rotavirus replication: 0.5 µg/mL (≈ 1.63 µM)
Murine norovirus [11]
  Activity against murine norovirus (in words): ineffective
adenovirus
  EC50 adenovirus replication: 0.2 µg/mL (≈ 0.651 µM)
[2]; 2.5 µM
  Reduction of FCV RNA levels compared to mock-treated cells: 80%
[12]
  Side-effects observed in cats: diarrhea and vomiting
GI norovirus replicon
  Concentration reported to inhibit GI norovirus replicon replication: 5 µg/mL
[4]; [16]
  CC50 at 48 h: 12.7 µM
FCV strain F-9
  Therapeutic index (TI = CC50/EC50): 21.1
FCV strain F-9; [17]
  EC50: 0.5 µM
FCV strain F-9; Feline calicivirus, CRFK, read-out: Plaque reduction EC50, FCV in CRFK cells, same value given in µg/mL
  EC50: 0.2 µg/mL
FCV strain F-9; [18]
  EC50: 0.6 µM

## Cc1nc(N=Nc2cc(S(=O)(=O)O)c3cc([N+](=O)[O-])cc(S(=O)(=O)O)c3c2)c(COP(=O)(O)O)c(C=O)c1O [PPNDS]
[5]
  RdRp Activity [% of Mock at 10 µM]: 7.4%
  Reduction of RdRp activity compared to mock controls: 92.6%
[5]; read-out: RdRp Activity IC50, dose-response 0.1-100 µM
  IC50: 2.7 µM
[6]
  CC50: > 100 µM
FCV strain F-9; 10 µM, 24 h
  Inhibition of plaque formation: < 10%
FCV strain F-9
  Antiviral effect against FCV in cell culture (in words): did not display antivirals effects
FCV strain F-9; [18]
  EC50: > 10 µM

## O=c1c(O)c(-c2ccc(O)c(O)c2)oc2cc(O)c(O)c(O)c12 [Quercetagetin, quercetagetin]
[5]
  IC50: 2.8 µM
  RdRp Activity [% of Mock at 10 µM]: 11.7%
  Reduction of RdRp activity compared to mock controls: 88.3%
HCV infectious virus
  EC50: 40.2 µM
Chikungunya replicon
  IC50: 43.5 µM
FCV strain F-9; [20]
  inhibition at 10 µM: < 10%
FCV strain F-9; [21]
  EC50: > 10 µM
FCV strain F-9
  Antiviral effect against FCV in cell culture (in words): did not display antivirals effects; also recorded: did not inhibit FCV plaque formation

## CCOC(=O)/C=C/[C@H](C[C@@H]1CCNC1=O)NC(=O)[C@@H](CC(=O)[C@@H](NC(=O)c1cc(C)on1)C(C)C)Cc1ccc(F)cc1 [Rupintrivir, rupintrivir]
[7]
  IC50: > 50 µM
  Inhibitory effect against FCV protease (in words): no inhibitory effect
FCV [8]
  EC50: > 50 µM
[4]; [16]
  CC50 at 48 h: > 100 µM
[13]
  IC50: < 1 µM

## CC(C)OC(=O)[C@H](C)N[P@](=O)(OC[C@H]1O[C@@H](n2ccc(=O)[nH]c2=O)[C@](C)(F)[C@@H]1O)Oc1ccccc1 [Sofosbuvir]
[4]
  CC50 at 48 h: > 100 µM
FCV strain F-9; [20]
  inhibition at 10 µM: < 10%
FCV strain F-9; [21]
  EC50: > 10 µM

## NC(=O)c1nc(F)c[nH]c1=O [T-705, Favipiravir]
[4]; [16]
  CC50 at 48 h: > 100 µM
FCV strain F-9; [20]
  inhibition at 10 µM: < 10%
FCV strain F-9; [17]
  EC50: > 10 µM

## COc1ccc2c(c1)C=C1Cn3c-2c(C2CCCCC2)c2ccc(cc23)C(=O)NS(=O)(=O)N(C)CCOCCN(C)C1=O [TMC-647055]
[5]
  RdRp Activity [% of Mock at 10 µM]: 93.5%
  Reduction of RdRp activity compared to mock controls: ≤ 10%
[4]; [16]
  CC50 at 48 h: < 30 µM
[6]
  CC50: 27.1 µM

## CC(C)[C@H](N)C(=O)O[C@@H]1[C@@H](CO)O[C@@H](n2ccc(N)nc2=O)[C@]1(C)O [Valopicitabine]
[14]
  Adverse events: dose-related gastrointestinal adverse events

## COC(=O)/C=C/c1cccc(N(Cc2ccc(-c3ccc(N(C)C)cc3)cc2)C(=O)C2CCCCC2)c1 [fexaramine]
FCV [15]
  Blocking of FCV entry (in words): effective at blocking FCV entry

## C[C@@]1(O)[C@H](O)[C@@H](COP(=O)(O)OP(=O)(O)OP(=O)(O)O)O[C@H]1n1ccc(N)nc1=O [tri-phosphorylated 2CMC]
Human norovirus RdRp
  IC50: 2.4 µM
Murine norovirus RdRp
  IC50: 1.4 µM
